The target of one assay is fascin (Homo sapiens (Human), UniProt Q16658). Description: High throughput fascin inhibition assay (actin bundling, F-actin imaging). In kind it is biochemical. On the procedure: A high throughput assay was developed to screen for fascin specific inhibitors. Purified polymerized F-actin with or without fascin were mixed and incubated to allow actin bundle formation. F-actin polymers were then bound to the poly-D-lysine coated plates. […] Four images were taken from each well and the average fiber length was analyzed for each tested compound.
Recombinant human fascin 1 was expressed as a GST fusion protein in BL21 Escherichia coli. One liter of 2YT medium with ampicillin was inoculated overnight with 3 mL of BL21/DE3 culture transformed with pGEX4T-fascin 1 plasmid and grown at 37° C. until attenuance at 600 nm (D600) reached about 0.8. The culture was then transferred to 18° C. and induced by the addition of 0.1 mM isopropyl β-d-thiogalactoside (IPTG) for 12 h. Bacteria were harvested by centrifugation at 5,000 r.p.m. for 10 min. The pellets were suspended in 30 mL of PBS supplemented with 0.2 mM PMSF, 1 mM DTT, 1% (v/v) Triton X-100 and 1 mM EDTA. After sonication, the suspension was centrifuged at 15,000 r.p.m. for 30 min to remove the cell debris. The supernatant was then incubated for 2 h with 4 mL of glutathione beads (Sigma) at 4° C. After extensive washing with PBS, the beads were resuspended in 10 mL of thrombin cleavage buffer (20 mM Tris-HCl pH 8.0, 150 mM NaCl, 2 mM CaCl2, 1 mM DTT). Fascin was released from the beads by incubation overnight with 40-100 U of thrombin at 4° C. After centrifugation, 0.2 mM PMSF was added to the supernatant to inactivate the remnant thrombin activity. The fascin protein was further concentrated with a Centricon® (Boca Raton, Fla.) filter to about 50 mg/mL.
About 150,000 compounds were screened. […] Purified fascin protein (15 μL of 0.5 μM) in buffer (100 mM KCl, 20 mM Tris/HCl, pH 7.5, 2 mM MgCl2) was added into each well of a clear 384-well flat-bottom plate (Corning) using Thermo Multidrop Combi (Fisher). Compound ([…]) solutions (5 mM stock) from various chemical libraries were pin transferred from stock 384-well plates into the 384-well assay plates and incubated for 30 min. Then 15 μL of 0.5 μM polymerized actin (in 100 mM KCl, 20 mM Tris/HCl, pH 7.5, 2 mM MgCl2, 1 mM DTT, 1 mM ATP) (Cytoskeleton Inc.) was added, resulting in 30 μM final concentration for chemical compounds. […] Mixed solution (25 μL) was then transferred to one well in a black 384-well plate coated with poly-D-lysine, and stained actin bundles or F-actin would stick onto the poly-D-lysine plates. After the plates were thoroughly washed with 1×PBS for 3 times, the plate was imaged using an ImageXpress Micro High Content Screening System (Molecular devices). The images were processed and analyzed using MetaMorph software. The raw image data for each well was background-corrected by subtraction of the median intensities across all wells on the plate. The background-corrected data was used to compute the bundle length for each well. The negative control wells were employed for quality control: multiple DMSO-only control wells (16 wells/plate) were present on each assay plate.

Another assay relates to 4T1 breast tumor cells. Put plainly: Boyden-chamber cell migration assay, 4T1. In kind it is cell-based. The method, then:
Since fascin is critical for tumor cell migration, inhibitors of fascin should block tumor cell migration. Representative compounds were selected from the above-identified fascin inhibitors to test their abilities on inhibition of tumor cell migration (See Table 2). […] The cell lines used are listed below.
Exemplifying procedure: MDA-MB-231 cells (5×10^4) or 4T1 Cells (1×10^5) suspended in 100 μL starvation medium were added to the upper chamber of an insert (6.5 mm diameter, 8 μm pore size; Becton Dickson), and the insert was placed in a 24-well plate containing 700 μL starvation medium with or without 10% FBS. […] Migration assays were performed for 6 h and cells were fixed with 3.7% formaldehyde. Cells were stained with crystal violet staining solution, and cells on the upper side of the insert were removed with a cotton swab. Three randomly selected fields (×10 objectives) on the lower side of the insert were photographed, and the migrated cells were counted. Migration was expressed as average number of migrated cells in a field.

A word on the IC50: it is the point on the concentration scale where inhibition reaches its midpoint. Low readings indicate inhibition by little substance, high ones a need for much substance. The compound `O=c1c2cnn(C3CCS(=O)(=O)C3)c2ncn1Cc1ccc(Cl)c(Cl)c1` [Compound 1, 5-(3,4-dichlorobenzyl)-1-(S,S,-dioxo-tetrahydrothiophen-3-yl)-1H-pyrazolo[3,4-d]pyrimidin-4(5H)-one] showed an IC50 against fascin of 0.734 µM.
For `O=C(Nc1nn(Cc2ccc(C(F)(F)F)cc2)c2ccccc12)c1ccco1` [Compound 2, N-(1-(4-(trifluoromethyl)benzyl)-1H-indazol-3-yl)furan-2-carboxamide], half-maximal inhibition at fascin (IC50) required 2 µM.
`CNc1nc(-c2ccccc2)[n+](-c2ccccc2)s1` [Compound 5, N-methyl-2,3-diphenyl-1,2,4-thiadiazolium-5-amine]: the IC50 in the assay with 4T1 breast tumor cells was 30 µM; on fascin, 0.5 µM.
With `c1ccc(CNc2nc(-c3ccccc3)[n+](-c3ccccc3)s2)cc1` [Compound 6, N-benzyl-2,3-diphenyl-1,2,4-thiadiazolium-5-amine], the IC50 against fascin came to 5 µM.
Take `c1ccc(Nc2nc(-c3ccccc3)[n+](-c3ccccc3)s2)cc1` [Compound 7, N-phenyl-2,3-diphenyl-1,2,4-thiadiazolium-5-amine]: the figures for the half-inhibitory concentration (IC50) with 4T1 breast tumor cells and on fascin were above 50 µM and 2 µM, respectively.
As to `Cc1ccc(C)c(S(=O)(=O)Nc2cc(Sc3nc[nH]n3)c(O)c3ccccc23)c1` [Compound 8, N-(3-(1H-1,2,4-triazol-3-ylthio)-4-hydroxynaphthalen-1-yl)-2,5-dimethylbenzenesulfonamide], the half-inhibitory concentration (IC50) in the assay with 4T1 breast tumor cells was 20 µM; on fascin it was 0.683 µM.
Taken in the same sequence, the figures for `CCOc1ccc(S(=O)(=O)Nc2cc(Sc3nc[nH]n3)c(O)c3ccccc23)cc1` [Compound 9, N-(3-(1H-1,2,4-triazol-3-ylthio)-4-hydroxynaphthalen-1-yl)-4-ethoxybenzenesulfonamide] were above 20 µM and 1.47 µM.
On to `CCc1ccc(S(=O)(=O)Nc2cc(Sc3nc[nH]n3)c(O)c3ccccc23)cc1` [Compound 11, N-(3-(1H-1,2,4-triazol-3-ylthio)-4-hydroxynaphthalen-1-yl)-4-ethylbenzenesulfonamide], for which the figures for the IC50 in the assay on 4T1 breast tumor cells and against fascin were around 20 µM and 0.89 µM, respectively.
As for `Cc1cc(C)c(S(=O)(=O)Nc2cc(Sc3nc[nH]n3)c(O)c3ccccc23)cc1C` [Compound 12, N-(3-(1H-1,2,4-triazol-3-ylthio)-4-hydroxynaphthalen-1-yl)-2,4,5-trimethylbenzenesulfonamide], the 50% inhibitory concentration (IC50) in the assay on 4T1 breast tumor cells is 16 µM; on fascin it was 0.539 µM.
For the compound `O=C1C(Sc2nc[nH]n2)=C/C(=N/S(=O)(=O)c2ccccc2)c2ccccc21` [Compound 13, (Z)-N-(3-(1H-1,2,4-triazol-3-ylthio)-4-oxonaphthalen-1(4H)-ylidene)benzenesulfonamide], the values for the concentration for half-maximal inhibition (IC50) in the assay with 4T1 breast tumor cells and against fascin were above 30 µM and 2 µM, respectively.
`O=S(=O)(Nc1cc(Sc2nc[nH]n2)c(O)c2ccccc12)c1ccc(Br)cc1` [Compound 14, N-(3-(1H-1,2,4-triazol-3-ylthio)-4-hydroxynaphthalen-1-yl)-4-bromobenzenesulfonamide]: the concentration for half-maximal inhibition (IC50) was around 25 µM in the assay on 4T1 breast tumor cells and 2.62 µM against fascin.
Taken in the same sequence, the figures for `Cc1ccc(S(=O)(=O)Nc2cc(Sc3nc[nH]n3)c(O)c3ccccc23)c(C)c1` [Compound 15, N-(3-(1H-1,2,4-triazol-3-ylthio)-4-hydroxynaphthalen-1-yl)-2,4-dimethylbenzenesulfonamide] were above 30 µM and 2.7 µM.
On to `O=S(=O)(Nc1nc2ccc(Oc3ccccc3)cc2s1)c1cccc(Cl)c1` [Compound 16, 3-chloro-N-(6-phenoxybenzo[d]thiazol-2-yl)benzenesulfonamide], for which the IC50 with 4T1 breast tumor cells was around 7 µM; against fascin, around 4 µM.
For `O=[N+]([O-])c1cccc(S(=O)(=O)Nc2nc3ccc(F)cc3s2)c1` [Compound 17, N-(6-fluorobenzo[d]thiazol-2-yl)-3-nitrobenzenesulfonamide], the IC50 was around 60 µM in the assay with 4T1 breast tumor cells and around 4 µM at fascin.
The corresponding values for `O=S(=O)(Nc1nc2ccc(F)cc2s1)c1cccc(Cl)c1Cl` [Compound 18, 2,3-dichloro-N-(6-fluorobenzo[d]thiazol-2-yl)benzenesulfonamide] are around 3 µM and around 13 µM.
As to `CC(=O)Nc1nc2ccc(Cl)cc2s1` [Compound 19, N-(6-chlorobenzo[d]thiazol-2-yl)acetamide], the IC50 in the assay with 4T1 breast tumor cells was around 25 µM; against fascin, around 2 µM.
`O=c1c2cnn(CCO)c2ncn1Cc1cccc(Cl)c1` [Compound 21, 5-(3-chlorobenzyl)-1-(2-hydroxyethyl)-1H-pyrazolo[3,4-d]pyrimidin-4(5H)-one] had a half-maximal inhibitory concentration (IC50) on fascin of 1.2 µM.
On to `O=C(Cn1cnc2c(cnn2C2CCS(=O)(=O)C2)c1=O)Nc1cccc(C(F)(F)F)c1` [Compound 23, 2-(4-oxo-1-(S,S,-dioxo-tetrahydrothiophen-3-yl)-1H-pyrazolo[3,4-d]pyrimidin-5(4H)-yl)-N-(3-(trifluoromethyl)phenyl)acetamide], for which, at fascin, half-maximal inhibition (IC50) was put at 3.4 µM.
Regarding `O=C(Cn1cnc2c(cnn2C2CCS(=O)(=O)C2)c1=O)NCc1ccc(F)cc1` [Compound 24, N-(4-fluorobenzyl)-2-(4-oxo-1-(S,S-dioxo-tetrahydrothiophen-3-yl)-1H-pyrazolo[3,4-d]pyrimidin-5(4H)-yl)acetamide], the IC50 against fascin turned out to be 4.3 µM. The IC50 values of the last two compounds are within 1.5-fold of each other.
As to `O=C(Cn1cnc2c(cnn2C2CCS(=O)(=O)C2)c1=O)NCc1ccc2c(c1)OCO2` [Compound 25, N-(benzo[d][1,3]dioxol-5-ylmethyl)-2-(4-oxo-1-(S,S-dioxo-tetrahydrothiophen-3-yl)-1H-pyrazolo[3,4-d]pyrimidin-5(4H)-yl)acetamide], the IC50 against fascin turned out to be 4.6 µM.
At fascin, `O=C(Cn1cnc2c(cnn2C2CCS(=O)(=O)C2)c1=O)Nc1ccc(Cl)cc1` [Compound 26, N-(4-chlorophenyl)-2-(4-oxo-1-(S,S-dioxo-tetrahydrothiophen-3-yl)-1H-pyrazolo[3,4-d]pyrimidin-5(4H)-yl)acetamide] showed a half-inhibitory concentration (IC50) of 4.3 µM.
Same read-out and setting: under `O=C(Cn1cnc2c(cnn2C2CCS(=O)(=O)C2)c1=O)c1ccc2c(c1)OCCO2` [Compound 27, 5-(2-(2,3-dihydrobenzo[b][1,4]dioxin-6-yl)-2-oxoethyl)-1-(S,S-dioxo-tetrahydrothiophen-3-yl)-1H-pyrazolo[3,4-d]pyrimidin-4(5H)-one] stands around 10 µM; under `Cc1ccc(C(=O)Cn2cnc3c(cnn3C3CCS(=O)(=O)C3)c2=O)c(C)c1` [Compound 28, 5-(2-(2,4-dimethylphenyl)-2-oxoethyl)-1-(S,S-dioxo-tetrahydrothiophen-3-yl)-1H-pyrazolo[3,4-d]pyrimidin-4(5H)-one], 4.7 µM; under `O=C(Cn1cnc2c(cnn2C2CCS(=O)(=O)C2)c1=O)c1ccc2c(c1)OCO2` [Compound 29, 5-(2-(benzo[d][1,3]dioxol-5-yl)-2-oxoethyl)-1-(S,S-dioxo-tetrahydrothiophen-3-yl)-1H-pyrazolo[3,4-d]pyrimidin-4(5H)-one], 3.7 µM.
With `Cc1ccccc1-n1ncc2c(=O)n(Cc3ccc(Cl)c(Cl)c3)cnc21` [Compound 30, 5-(3,4-dichlorobenzyl)-1-o-tolyl-1H-pyrazolo[3,4-d]pyrimidin-4(5H)-one], on fascin, 2 µM corresponded to half-maximal inhibition (IC50).
Compound `Cc1cccc(-n2ncc3c(=O)n(Cc4ccc(Cl)c(Cl)c4)cnc32)c1C` [Compound 31, 5-(3,4-dichlorobenzyl)-1-(2,3-dimethylphenyl)-1H-pyrazolo[3,4-d]pyrimidin-4(5H)-one] registered an IC50 on fascin of 2.3 µM.
`Cc1ccc(-n2ncc3c(=O)n(Cc4ccc(Cl)c(Cl)c4)cnc32)c(C)c1` [Compound 32, 5-(3,4-dichlorobenzyl)-1-(2,4-dimethylphenyl)-1H-pyrazolo[3,4-d]pyrimidin-4(5H)-one] showed an IC50 against fascin of 2.1 µM.

These data come from patent US10208043B2, “Methods for inhibiting fascin” (Novita Pharmaceuticals, Inc., priority 2012, dated 2019).
